# Activity calls are given as the source filed them. The rule behind the calls is not given here.
# Experiments:
# U-937 [1] = assay: Cytotoxicity against human U937 cells assessed as reduction in cell viability at 10 uM measured after 3 days by CCK8 assay; type: functional, cell-based
# U-937 [2] = assay: Induction of apoptosis in human U937 cells assessed as early apoptotic cells at 0.3 uM measured after 2 days by muse Annexin V/dead cell reagent staining-based flow cytometry (reference value: 0.7 %); type: functional
# U-937 [3] = assay: Induction of apoptosis in human U937 cells assessed as early apoptotic cells at 0.3 uM measured after 3 days by muse Annexin V/dead cell reagent staining-based flow cytometry (reference value: 0.7 %); type: functional
# U-937 [4] = assay: Induction of apoptosis in human U937 cells assessed as early apoptotic cells at 0.3 uM measured after 1 day by muse Annexin V/dead cell reagent staining-based flow cytometry (reference value: 0.7 %); type: functional
# U-937 [5] = assay: Induction of apoptosis in human U937 cells assessed as necrotic cells at 0.3 uM measured after 2 days by muse Annexin V/dead cell reagent staining-based flow cytometry (reference value: 2.5 %); type: functional
# U-937 [6] = assay: Induction of apoptosis in human U937 cells assessed as necrotic cells at 0.3 uM measured after 1 day by muse Annexin V/dead cell reagent staining-based flow cytometry (reference value: 2.5 %); type: functional
# U-937 [7] = assay: Induction of apoptosis in human U937 cells assessed as live cells at 0.3 uM measured after 1 day by muse Annexin V/dead cell reagent staining-based flow cytometry (reference value: 95.05 %); type: functional
# U-937 [8] = assay: Induction of apoptosis in human U937 cells assessed as necrotic cells at 0.3 uM measured after 3 days by muse Annexin V/dead cell reagent staining-based flow cytometry (reference value: 2.5 %); type: functional
# U-937 [9] = assay: Induction of apoptosis in human U937 cells assessed as live cells at 0.3 uM measured after 3 days by muse Annexin V/dead cell reagent staining-based flow cytometry (reference value: 95.05 %); type: functional
# U-937 [10] = assay: Cytotoxicity against human U937 cells assessed as reduction in cell viability measured after 3 days by CCK8 assay; type: functional, cell-based; conditions: U-937, 72 h
# U-937 [11] = assay: Induction of apoptosis in human U937 cells assessed as late apoptotic cells at 0.3 uM measured after 3 days by muse Annexin V/dead cell reagent staining-based flow cytometry (reference value: 1.75 %); type: functional
# U-937 [12] = assay: Induction of apoptosis in human U937 cells assessed as late apoptotic cells at 0.3 uM measured after 2 days by muse Annexin V/dead cell reagent staining-based flow cytometry (reference value: 1.75 %); type: functional
# U-937 [13] = assay: Induction of apoptosis in human U937 cells assessed as late apoptotic cells at 0.3 uM measured after 1 day by muse Annexin V/dead cell reagent staining-based flow cytometry (reference value: 1.75 %); type: functional
# U-937 [14] = assay: Induction of apoptosis in human U937 cells assessed as live cells at 0.3 uM measured after 2 days by muse Annexin V/dead cell reagent staining-based flow cytometry (reference value: 95.05 %); type: functional
# [15] = molecular target: T1, Protein farnesyltransferase (Homo sapiens) (UniProt P49354+P49356); assay: Inhibition of FTase (unknown origin); type: protein-complex assay
# [16] = molecular target: c-Jun N-terminal kinase, JNK (Homo sapiens) (UniProt P45983+P53779+P45984); assay: Inhibition of JNK phosphorylation in human U937 cells at 0.3 uM measured after 1 to 3 hrs y Western blot analysis; type: cell-based
# CCD-18Co = assay: Cytotoxicity against human CCD-18Co cells assessed as reduction in cell viability measured after 3 days by CCK8 assay; type: cell-based; conditions: 72 h
# U-937 [17] = assay: Induction of apoptosis in human U937 cells assessed as increase in caspase-3/7 activity up to 1 uM after 24 hrs; type: functional, cell-based
# Homo sapiens = species: Homo sapiens; assay: Inhibition of ERK phosphorylation in human U937 cells at 0.3 uM measured after 1 to 3 hrs y Western blot analysis; type: cell-based
# [18] = molecular target: T1, Protein farnesyltransferase (Homo sapiens); assay: Inhibition of FTase in human U937 cells assessed as reduction in p38 MAPK phosphorylation at 0.3 uM measured after 1 to 3 hrs y Western blot analysis; type: cell-based
smiles,measurement,setting,value
COc1cccc(/C=C/C(=O)c2ccn3cc(-c4ccccc4)ncc23)c1,Activity,U-937 [1],Active
COc1ccc(/C=C/C(=O)c2ccn3cc(-c4ccccc4)ncc23)cc1,Activity,U-937 [1],Active
Nc1ccn([C@@H]2O[C@H](CO)[C@@H](O)[C@@H]2O)c(=O)n1 [CYTARABINE],Activity,U-937 [2],2.65%
same,Activity,U-937 [3],8.7%
same,Activity,U-937 [4],4.2%
same,Activity,U-937 [5],8.8%
same,Activity,U-937 [6],11.2%
same,Activity,U-937 [7],79.05%
same,Activity,U-937 [8],11.05%
same,Activity,U-937 [9],69.7%
same,IC50,U-937 [10],2 nM
same,Activity,U-937 [11],10.55%
same,Activity,U-937 [12],5.35%
same,Activity,U-937 [13],5.55%
same,Activity,U-937 [14],83.2%
same,Activity,U-937 [1],Active
O=C(/C=C/c1ccccc1Cl)c1ccn2cc(-c3ccccc3)ncc12,Activity,U-937 [1],inactive
O=C(/C=C/c1ccccc1Br)c1ccn2cc(-c3ccccc3)ncc12,Activity,U-937 [1],inactive
COc1ccc(OC)c(/C=C/C(=O)c2ccn3cc(-c4ccccc4)ncc23)c1,Activity,U-937 [1],inactive
O=C(/C=C/c1ccccn1)c1ccn2cc(-c3ccccc3)ncc12,IC50,U-937 [10],880 nM
same,Activity,U-937 [1],Active
O=C(/C=C/c1cccnc1)c1ccn2cc(-c3ccccc3)ncc12,IC50,U-937 [10],630 nM
same,Activity,U-937 [1],Active
O=C(/C=C/c1ccccc1F)c1ccn2cc(-c3ccccc3)ncc12,Activity,U-937 [1],inactive
COc1ccc(/C=C/C(=O)c2ccn3cc(-c4ccccc4)ncc23)c(OC)c1,Activity,U-937 [2],2.15%
same,inhibition,[15],Active
same,Activity,U-937 [3],5.95%
same,inhibition,[16],inactive
same,IC50,CCD-18Co,7440 nM
same,Activity,U-937 [4],2.3%
same,Activity,U-937 [5],5.1%
same,Activity,U-937 [17],Active
same,Activity,U-937 [6],8.4%
same,inhibition,Homo sapiens,inactive
same,inhibition,[18],Active
same,Activity,U-937 [7],84.45%
same,Activity,U-937 [8],5.2%
same,Activity,U-937 [9],83.15%
same,IC50,U-937 [10],180 nM
same,Activity,U-937 [11],5.7%
same,Activity,U-937 [12],4.2%
same,Activity,U-937 [13],4.85%
same,Activity,U-937 [14],88.55%
COc1ccccc1/C=C/C(=O)c1ccn2cc(-c3ccccc3)ncc12,IC50,U-937 [10],770 nM
same,Activity,U-937 [1],Active
O=C(/C=C/c1ccccc1I)c1ccn2cc(-c3ccccc3)ncc12,Activity,U-937 [1],inactive
O=C(/C=C/c1ccncc1)c1ccn2cc(-c3ccccc3)ncc12,IC50,U-937 [10],690 nM
same,Activity,U-937 [1],Active
